“Also recorded” adds a separate entry of the source.
What was measured:
[1] = tested on: mice; experiment: morphine conditioned place preference (CPP) paradigm to assess morphine reward; assay type: in vivo
Description: The ability of a MAGL inhibitor to attenuate the rewarding effect of an opioid can also be assessed in animal models. For example, a morphine conditioning place preference (CPP) paradigm can be used as a preclinical model to measure reward, in which mice are conditioned to associate a particular chamber with the rewarding effects of morphine (see, e.g., Example 1). Reward, e.g., as measured by a preference for the morphine chamber, can be assessed at different phases of morphine conditioning, for example to assess if a MAGL inhibitor decreases or inhibits the establishment of the rewarding effect or of its maintenance or expression.
Endocannabinoid signaling is primarily regulated by MAGL and FAAH, the two enzymes responsible for catabolizing the endogenous cannabinoids, 2-AG and anandamide. Although some studies have shown that inhibition of these enzymes reduces certain aspects of morphine withdrawal, no studies exist that have examined their role in morphine reward. We utilized the morphine conditioned place preference (CPP) paradigm, to assess morphine reward, in which mice are conditioned to associate a particular chamber with the rewarding effects of morphine (FIG. 1A). […] To test the effect of systemic blockade of MAGL with the pharmacological inhibitor JZL-184 on morphine reward, on Day 1 mice underwent a baseline test, on Day 2-5 mice were conditioned to morphine wherein they received an intraperitoneal (i.p.) injection of JLZ-184 (10 mg/kg, i.p.), two hours prior to each morphine conditioning session (FIG. 1B). On day 6, mice were tested for morphine preference. […] Next, to test if this effect of MAGL inhibition was selective for the conditioning phase or potentially could also alter the expression of the morphine preference, mice were injected with JLZ-184 two hours prior to the Day 6 morphine preference test, in the absence of morphine (FIG. 1D).
In order to expand our findings, we decided to test the (R)-3t compound, a reversible MAGL inhibitor, in morphine conditioned place preference. As with JZL-184, (R)-3t (20 mg/kg) was given before each morphine conditioning session (FIG. 3A).
To test the effect of inhibiting the enzyme FAAH on the rewarding effects of morphine, we tested the effect of the FAAH inhibitor PF-3845 in morphine conditioned place preference. […] We additionally found no effect of PF-3845 (10 mg/kg, i.p.) on morphine-induced analgesia and morphine tolerance using the tail-flick test (FIGS. 4E-G).
Inhibition of the MAGL enzyme with JZL-184 results in lower metabolization of the endogenous cannabinoid 2-AG. This implies higher availability of this endogenous cannabinoid receptor 1 (CB1) ligand to activate CB1 receptors. Next, we tested the effect of activating the CB1 receptor with the exogenous CB1 ligand, THC, on morphine conditioned place preference. Mice were systemically administered THC prior to each morphine conditioning session (FIG. 5A).

[2] = tested on: mice; experiment: tail flick test, morphine analgesia, cumulative dose response of morphine; assay type: in vivo
[3] = tested on: mice; experiment: tail flick test, tolerance to morphine's analgesic effects; assay type: in vivo
Protocol: Chronic morphine treatment can result in tolerance to its analgesic effects; therefore, to test if morphine tolerance was affected by MAGL inhibition, for four consecutive days mice received a morning and afternoon injection of JZL-184 (10 mg/kg, i.p.), two hours prior to an injection of morphine (10 mg/kg), and antinociception was assessed every other day in the tail flick test.

[4] = tested on: mice; experiment: cocaine conditioned place preference (CPP); assay type: in vivo; details: JZL-184 prior to each cocaine conditioning session
Description: Although drugs of abuse exert their rewarding effects through similar pathways and brain structures, they use different mechanisms. […] Mice were pretreated with JZL-184 prior to each cocaine conditioning session (FIG. 6A).

[5] = tested on: nucleus accumbens (NAc) activity; experiment: in vivo fiber photometry (GCaMP6s) recording during morphine CPP; details: JZL-184 treated mice
Description: FIGS. 7A-7D. MAGL inhibition reduces nucleus accumbens (NAc) activity during morphine CPP. FIG. 7A: Experimental timeline for fiber photometry recording during […]. FIG. 7B: Brain schematic with an optic fiber implanted into the NAc expressing the calcium indicator GCaMP6s and a representative image of the GCaMP6s expressing in the NAc (aca=anterior commissure, AcbC=nucleus accumbens core, AcbSh=nucleus accumbens shell). FIG. 7C: Graph of the quantification of the mean signal (representative of NAc activity) around zone entry into the morphine- or saline-paired chambers of vehicle- or JZL-184-pretreated animals. (dF/F (%) data for the average signal +/− 5s around zone entries; vehicle-treated animals, morphine vs saline chamber *p<0.05, n=6; JZL-184 treated animals, morphine vs saline p=0.054, n=9). FIG. 7D: Graph of the quantification of the onset of approach to morphine- or saline-paired chambers (dF/F (%) data for the average signal +/− 5s of the onset of approaching a chamber; vehicle-treated animals, morphine vs saline chamber *p<0.05, n=6; JZL-184 treated animals, morphine vs saline p=0.39, n=9).
The rewarding effects of morphine have been linked to neural activity of the brain region the nucleus accumbens. […]

[6] = tested on: monoacylglycerol lipase (MAGL); details: cited from earlier work
[7] = pretreatment with PF-3845 10 mg/kg i.p.

## Cc1ncccc1-c1cc(F)cc(N2C[C@H](N3CCN(c4ncccn4)CC3)CC2=O)c1 [(R)-3t, (4R)-1-[3-fluoro-5-(2-methylpyridin-3-yl)phenyl]-4-[4-(pyrimidin-2-yl)piperazin-1-yl]pyrrolidin-2-one]
[1]; (R)-3t 20 mg/kg before each morphine conditioning session
  acquisition of morphine CPP (morphine reward): resulted in a lack of morphine reward; also recorded: abolishes the rewarding effects of morphine; also recorded: abolishes acquisition of CPP

## O=C(Nc1cccnc1)N1CCC(Cc2cccc(Oc3ccc(C(F)(F)F)cn3)c2)CC1 [PF-3845]
[1]; PF-3845 10 mg/kg i.p. before each conditioning session, 10 mg/kg
  acquisition of morphine CPP: had no effect on acquisition of morphine conditioned place preference; also recorded: does not alter acquisition of morphine CPP
[1]; PF-3845 10 mg/kg i.p. before the morphine CPP expression test, 10 mg/kg
  expression of morphine CPP: had no effect; also recorded: does not alter
[2]; [7]
  morphine-induced analgesia: no effect; also recorded: are not affected
[3]; [7]
  morphine tolerance: no effect; also recorded: are not affected

## CCCCCc1cc(O)c2c(c1)OC(C)(C)[C@@H]1CCC(C)=C[C@@H]21 [THC, Δ^9-Tetrahydrocannabinol]
[1]; THC systemically prior to each morphine conditioning session
  acquisition of morphine CPP (morphine reward): had no effect on morphine reward; also recorded: does not alter the acquisition of morphine CPP

## O=C(Oc1ccc([N+](=O)[O-])cc1)N1CCC(C(O)(c2ccc3c(c2)OCO3)c2ccc3c(c2)OCO3)CC1 [JZL-184, (4-nitrophenyl) 4-[bis(1,3-benzodioxol-5-yl)-hydroxymethyl]piperidine-1-carboxylate]
[1]; JZL-184 10 mg/kg i.p. two hours prior to each morphine conditioning session (Day 2-5), preference test Day 6, 10 mg/kg
  acquisition of morphine CPP (morphine reward): abolishes morphine reward; also recorded: abolishes the rewarding effects of morphine; also recorded: abolished morphine CPP
[1]; JZL-184 two hours prior to the Day 6 morphine preference test, in the absence of morphine
  expression of morphine CPP: does not alter the expression of morphine CPP
[1]; JZL-184 two hours prior to the Day 6 morphine preference test, in the absence of morphine, listed as JLZ-184
  expression of morphine CPP: had no effect on morphine reward
[2]; JZL-184 10 mg/kg i.p. two hours before morphine 0.1-10 mg/kg cumulative, tested 30 minutes after each dose
  morphine-induced analgesia: did not alter the analgesic effects of morphine; also recorded: does not affect morphine-induced analgesia
[3]; JZL-184 10 mg/kg i.p. morning and afternoon, two hours prior to morphine 10 mg/kg, four consecutive days, compared to vehicle
  development of tolerance to morphine's analgesic effects: delayed morphine-induced tolerance; also recorded: delays the development of tolerance to morphine's analgesic effects
[4]
  acquisition of cocaine CPP (cocaine reward): did not have any effect on cocaine reward; also recorded: does not alter the acquisition of cocaine CPP
[5]; onset of approach (FIG. 7D)
  higher nucleus accumbens activity when approaching the morphine-paired chamber: abolished
[5]; signal around zone entry (FIG. 7C)
  increase in nucleus accumbens activity prior to entry into the morphine-paired chamber vs saline-paired chamber: absent
[6]
  selectivity for MAGL over other brain serine hydrolases, including FAAH: highly selective for MAGL over other brain serine hydrolases

Reference: patent publication US20220288010A1, “METHODS FOR REDUCING REWARDING EFFECTS OF MORPHINE WITHOUT AFFECTING ITS ANALGESIC EFFECTS” (The Board of Trustees of the Leland Stanford Junior …, priority 2019, published 2022)
